Source: patent US8585942B2, “Process and arrangement for producing particles utilizing subcritical fluids” (XSpray Microparticles AB, priority 2007, dated 2013)

Experiments:
[1] = Particle size characterisation by laser diffraction (Mastersizer 2000); assay type: physicochemical; conditions: budesonide particles; for Particle size distribution D(0.1′): diameter for the smallest particles up to 10% of the material analyzed; for Particle size distribution d(0.5)′ (mean particle size): diameter for the smallest particles up to 50% of the material analyzed; for Particle size distribution d(0.9)′: diameter for the smallest particles up to 90% of the material analyzed
Description: The terms “particle size”, “particle size diameter” and “particle size distribution” in this specification refer to values obtained as given in the Experimental Part (laser diffraction by the use of Mastersizer 2000 from Malvern Instruments Ltd, Worcestershire, United Kindom). For the meaning of “mean particle size” or “mean particle diameter” see also the Experimental Part.
A 2% w/v budesonide solution in acetone was introduced into the nozzle of FIG. 2 placed in the arrangement of FIG. 1 (except for the recycling capability) using a separate high-performance liquid chromatography pump 1.4 ml/min, together with the 125 g/min scCO2 (about 150 ml/min) which was modified with the make-up agent 4.2 ml/min acetone. The pressure in the system was 100 atm. and temperature was at 60° C. All of the streams contact within the nozzle and the budesonide powder formed and collected in the particle collecting chamber. The scCO2 and acetone was drained via the backpressure regulator outlet. Then, a further washing process was performed to eliminate the solvent mixed in the scCO2. After the washing process, the CO2 was slowly drained off from the chamber. Once the CO2 had been completely removed, the particles on the filter and on the wall were collected for analysis. The particles were characterized by laser diffraction in Mastersizer 2000 (Malvern Instruments Ltd, Worcestershire, United Kingdom).

[2] = Particle morphology and size by scanning electron microscope (TM-1000 Hitachi); assay type: physicochemical; conditions: Example 6: solvent acetone, fluid water 10 ml/min, solution 0.2 ml/min, coaxial tube nozzle (FIG. 6)
Method: It had two high pressure pumps (Jasco PU 980). One of the pump (624b) is used to feed the solution (0.2 ml/min Piroxicam in acetone (2% w/v)) (602) via a transport conduit (621) and the other pump (624a) is used to feed 10 ml/min water (fluid, anti-solvent) (603) via transport conduit (616) to a spray nozzle (601) placed in a particle collection chamber (605) containing at its outlet (625) a function for separating particles (filter) (615). The nozzle internal transport conduits were two stainless steel tubes (610,612) that were placed coaxially to each other with the inner one (612) connected to the pump (624b) for the solution and the outer one (610) to the pump (624a) for fluid. […] Particle sizes were determined to be less than 3 μm. […]
A high pressure pump (Thar P50) (724a) is used to feed 50 ml/min water (fluid, anti-solvent) (703) via a transport conduit (716) and a high pressure pump (Jasco PU 980) (724b) is used to feed 1 ml/min solution of Piroxicam in acetone (2% w/v) (702) via transport conduit (721) to a nozzle (701) placed in a particle collecting chamber (705) containing at its outlet (725) a particle separation function in the form of a filter cup (715). […] The morphology and size of the crystals in the filter cup is determined using TM1000 Hitachi scanning electron microscope. Particle sizes were determined to be between 0.5 μm to 2 μm. […]

Row | Structure (SMILES) | Spec. Surface Area [1] [m^2/g] | Particle size distribution D(0.1′) [1] | Particle size distribution d(0.5)′ (mean particle size) [1] | Particle size distribution d(0.9)′ [1] | Particle sizes [2]
1 | CCCC1O[C@@H]2C[C@H]3[C@@H]4CCC5=CC(=O)C=C[C@]5(C)[C@H]4[C@@H](O)C[C@]3(C)[C@]2(C(=O)CO)O1 (stereo partly drawn) [Example 4, budesonide] | 0.6 | ≦6.3 μm | ≦14.2 μm | ≦26.7 μm | –
2 | CCCC1O[C@@H]2C[C@H]3[C@@H]4CCC5=CC(=O)C=C[C@]5(C)[C@H]4[C@@H](O)C[C@]3(C)[C@]2(C(=O)CO)O1 (stereo partly drawn) [Example 3, budesonide] | 1.6 | ≦2.2 μm | ≦4.2 μm | ≦8.7 μm | –
3 | CN1C(C(=O)Nc2ccccn2)=C(O)c2ccccc2S1(=O)=O [Piroxicam] | – | – | – | – | less than 3 μm
4 | CCCC1O[C@@H]2C[C@H]3[C@@H]4CCC5=CC(=O)C=C[C@]5(C)[C@H]4[C@@H](O)C[C@]3(C)[C@]2(C(=O)CO)O1 (stereo partly drawn) [Example 1, budesonide] | 1.7 | ≦1.9 μm | ≦4.0 μm | ≦7.9 μm | –
5 | CCCC1O[C@@H]2C[C@H]3[C@@H]4CCC5=CC(=O)C=C[C@]5(C)[C@H]4[C@@H](O)C[C@]3(C)[C@]2(C(=O)CO)O1 (stereo partly drawn) [Example 5, budesonide] | 1.7 | ≦2.0 μm | ≦4.1 μm | ≦7.9 μm | –
6 | CCCC1O[C@@H]2C[C@H]3[C@@H]4CCC5=CC(=O)C=C[C@]5(C)[C@H]4[C@@H](O)C[C@]3(C)[C@]2(C(=O)CO)O1 (stereo partly drawn) [Example 2, budesonide] | 1.7 | ≦1.1 μm | ≦1.9 μm | ≦3.4 μm | –
